Assay results as given in the NIST ThermoML archive (doi:10.1007/s10765-009-0648-5).

Assay: wn = mass fraction of the nth substance listed
Settings: 101 kPa, Liquid

CCC[n+]1ccn(C)c1.[Br-] [1-methyl-3-propylimidazolium bromide] + CN(C)C=O
Settings	mass density, 288.15 K [kg/m3]	mass density, 293.15 K [kg/m3]	mass density, 298.15 K [kg/m3]	mass density, 303.15 K [kg/m3]	mass density, 308.15 K [kg/m3]	speed of sound, 288.15 K [m/s]	speed of sound, 293.15 K [m/s]	speed of sound, 298.15 K [m/s]	speed of sound, 303.15 K [m/s]	speed of sound, 308.15 K [m/s]
w1 = 0.006	955.471	950.721	945.962	941.197	936.424	1498.4	1479.2	1459.8	1440.5	1421.2
w1 = 0.0073	955.896	951.148	946.392	941.628	936.859	1498.7	1479.5	1460.1	1440.8	1421.5
w1 = 0.0101	956.834	952.089	947.339	942.58	937.812	1499.5	1480.2	1460.8	1441.4	1422.2
w1 = 0.012	957.413	952.669	947.92	943.162	938.398	1499.8	1480.3	1460.9	1441.6	1422.5
w1 = 0.0162	958.776	954.039	949.295	944.542	939.782	1500.8	1481.6	1462.2	1442.9	1423.7
w1 = 0.0204	960.154	955.416	950.675	945.932	941.175	1501.7	1482.2	1462.9	1443.6	1424.5
w1 = 0.0249	961.605	956.878	952.144	947.403	942.652	1502.7	1483.5	1464.2	1445	1425.8
w1 = 0.0303	963.324	958.602	953.872	949.136	944.395	1503.7	1484.4	1465.1	1445.9	1426.9
w1 = 0.0348	964.79	960.068	955.349	950.617	945.882	1504.8	1485.4	1466.2	1447	1428.1
w1 = 0.0405	966.57	961.858	957.139	952.415	947.684	1505.8	1486.5	1467.3	1448.2	1429.2
w1 = 0.0503	969.758	965.06	960.356	955.641	950.923	1507.8	1488.8	1469.7	1450.5	1431.6
w1 = 0.0586	972.333	967.639	962.94	958.234	953.523	1509.3	1490.1	1471	1452	1433.1
w1 = 1	1323.47	1319.84	1316.22	1312.6	1308.97	1699.3	1685	1672	1659.9	1648.3

CCC[n+]1ccn(C)c1.[Br-] [1-methyl-3-propylimidazolium bromide] + CC#N
Settings	mass density, 288.15 K [kg/m3]	mass density, 293.15 K [kg/m3]	mass density, 298.15 K [kg/m3]	mass density, 303.15 K [kg/m3]	mass density, 308.15 K [kg/m3]	speed of sound, 288.15 K [m/s]	speed of sound, 293.15 K [m/s]	speed of sound, 298.15 K [m/s]	speed of sound, 303.15 K [m/s]	speed of sound, 308.15 K [m/s]
w1 = 0.0042	788.991	783.623	778.237	772.813	767.37	1320.2	1300.1	1280	1259.7	1239.6
w1 = 0.0061	789.726	784.364	778.979	773.562	768.119	1320.5	1300.3	1280.2	1260	1240.1
w1 = 0.0082	790.532	785.181	779.798	774.387	768.949	1321.1	1301.1	1281	1260.9	1240.8
w1 = 0.0107	791.47	786.115	780.735	775.331	769.896	1321.5	1301.3	1281.2	1261.1	1241.2
w1 = 0.0124	792.123	786.772	781.397	775.996	770.564	1322	1302	1281.9	1261.8	1241.7
w1 = 0.0161	793.533	788.186	782.814	777.417	771.996	1322.6	1302.5	1282.4	1262.3	1242.5
w1 = 0.0206	795.242	789.902	784.538	779.149	773.734	1323.5	1303.4	1283.4	1263.4	1243.5
w1 = 0.0251	796.939	791.606	786.248	780.864	775.46	1324.4	1304.3	1284.3	1264.4	1244.6
w1 = 0.0298	798.688	793.361	788.011	782.637	777.238	1325.3	1305.3	1285.3	1265.4	1245.6
w1 = 0.0347	800.578	795.262	789.919	784.553	779.16	1326.4	1306.5	1286.6	1266.7	1246.8
w1 = 0.0407	802.812	797.5	792.166	786.808	781.426	1327.3	1307.4	1287.5	1267.6	1248
w1 = 0.0493	806.071	800.772	795.452	790.107	784.738	1329.1	1309.3	1289.4	1269.6	1249.8
w1 = 0.0605	810.335	805.049	799.743	794.412	789.059	1331	1311.1	1291.3	1271.6	1252.1
w1 = 1	1323.47	1319.84	1316.22	1312.6	1308.97	1699.3	1685	1672	1659.9	1648.3
